Assay results from US20220089575A1, “FARNESOID X RECEPTOR AGONISTS AND USES THEREOF” (Metacrine, Inc., priority 2017, published 2022).

What follows are compounds tested against T1, hFXR (Homo sapiens, UniProt Q96RI1) (assay: In Vitro FXR Assay (TK): TK-ECRE-luc reporter in transfected CV-1 cells). Details: 18 hrs, luminescence, maximum efficacy of <25% of the Fexarmine control classified as '+'.
T1 construct: expressed in transfected cells; host or cells: CV-1 cells
T1 sequence (Q96RI1 1-486): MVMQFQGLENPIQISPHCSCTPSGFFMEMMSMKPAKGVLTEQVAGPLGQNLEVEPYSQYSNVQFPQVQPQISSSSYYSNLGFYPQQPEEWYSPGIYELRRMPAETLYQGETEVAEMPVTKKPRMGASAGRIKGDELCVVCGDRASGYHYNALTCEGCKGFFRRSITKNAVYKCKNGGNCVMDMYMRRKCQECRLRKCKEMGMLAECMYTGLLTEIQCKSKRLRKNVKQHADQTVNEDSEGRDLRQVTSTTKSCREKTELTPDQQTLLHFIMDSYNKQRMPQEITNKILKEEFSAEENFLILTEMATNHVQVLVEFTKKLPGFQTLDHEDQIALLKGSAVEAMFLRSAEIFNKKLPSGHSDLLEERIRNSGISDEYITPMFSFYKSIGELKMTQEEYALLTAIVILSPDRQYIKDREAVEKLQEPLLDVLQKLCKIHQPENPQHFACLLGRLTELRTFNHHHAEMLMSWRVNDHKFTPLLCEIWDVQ
T1 sequence (P19793 1-462 partner): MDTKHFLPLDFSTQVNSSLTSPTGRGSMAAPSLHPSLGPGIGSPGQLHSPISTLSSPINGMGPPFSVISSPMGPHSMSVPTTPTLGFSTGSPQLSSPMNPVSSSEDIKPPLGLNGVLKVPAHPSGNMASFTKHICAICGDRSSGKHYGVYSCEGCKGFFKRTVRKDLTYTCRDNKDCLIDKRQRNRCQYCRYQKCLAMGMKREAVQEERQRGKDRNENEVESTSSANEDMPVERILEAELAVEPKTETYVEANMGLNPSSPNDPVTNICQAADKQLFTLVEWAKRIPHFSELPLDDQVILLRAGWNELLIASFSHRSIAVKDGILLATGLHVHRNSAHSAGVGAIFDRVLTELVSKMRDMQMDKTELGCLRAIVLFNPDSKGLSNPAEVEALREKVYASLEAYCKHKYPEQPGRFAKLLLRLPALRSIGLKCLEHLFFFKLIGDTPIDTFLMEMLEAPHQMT
Assay type: cell-based
In short: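 Luciferase read-out after 18 h compound exposure of CV-1 cells carrying transfected hFXR plus hRXR expression plasmids, TK-ECRE-luc reporter and pCMX-YFP. Cells cultured in charcoal-stripped FBS before transfection; compounds serially diluted in DMSO.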
With `COc1ccc([C@H]2CC[C@H](CN(c3cccc(-c4cnn(C5CC5)c4)c3)C(=O)[C@H]3CC[C@H](OC(=O)N4CC(C(=O)O)C4)CC3)CC2)cc1C` [Compound 7.35, 1-(((trans-4-((3-(1-Cyclopropyl-1H-pyrazol-4-yl)phenyl)((trans-4-(4-methoxy-3-methylphenyl)cyclohexyl)methyl)carbamoyl)cyclohexyl)oxy)carbonyl)azetidine-3-carboxylic acid] the EC50 was ≤ 250 nM. With `COc1ccc([C@H]2CC[C@H](CN(c3cc(-c4cnn(C(C)C)c4)ccn3)C(=O)[C@H]3CC[C@H](CC(=O)O)CC3)CC2)nc1C#N` [Compound 17.27, 2-(trans-4-(((trans-4-(6-Cyano-5-methoxypyridin-2-yl)cyclohexyl)methyl)(4-(1-isopropyl-1H-pyrazol-4-yl)pyridin-2-yl)carbamoyl)cyclohexyl)acetic acid] the EC50 was ≥ 1000 nM. `COc1ccc([C@H]2CC[C@H](CN(c3cc(-c4coc(C5CC5)n4)ccn3)C(=O)[C@H]3CC[C@H](OC(=O)N4CCOC(C)(C)C4)CC3)CC2)nc1C` [Compound 6.83, trans-4-((4-(2-Cyclopropyloxazol-4-yl)pyridin-2-yl)((trans-4-(5-methoxy-6-methylpyridin-2-yl)cyclohexyl)methyl)carbamoyl)cyclohexyl 2,2-dimethylmorpholine-4-carboxylate] was tested, and the EC50 was ≤ 250 nM. With `CCN1CCN(C(=O)O[C@H]2CC[C@H](C(=O)N(C[C@H]3CC[C@H](c4ccc(OC)c(C)n4)CC3)c3cc(-c4coc(C5CC5)n4)ccn3)CC2)CC1` [Compound 6.81, trans-4-((4-(2-Cyclopropyloxazol-4-yl)pyridine-2-yl)((trans-4-(5-methoxy-6-methylpyridin-2-yl)cyclohexyl)methyl)carbamoyl)cyclohexyl 4-ethylpiperazine-1-carboxylate] the EC50 was ≤ 250 nM. For `COc1ccc(C23CCC(CN(c4cc(-c5coc(C6CC6)n5)ccn4)C(=O)[C@H]4CC[C@H](CC(=O)O)CC4)(CC2)CC3)cc1C` [Compound 21, trans-2-(4-((4-(2-Cyclopropyloxazol-4-yl)pyridin-2-yl)((4-(4-methoxy-3-methylphenyl)bicyclo[2.2.2]octan-1-yl)methyl)carbamoyl)cyclohexyl) acetic acid], the EC50 was ≤ 250 nM. For `CN(C)c1ccc([C@H]2CC[C@H](CN(c3cccc(-c4cnc(C5CC5)s4)c3)C(=O)[C@H]3CC[C@H](OC(=O)N4CC(O)C4)CC3)CC2)cn1` [Compound 7.01, trans-4-((3-(2-Cyclopropylthiazol-5-yl)phenyl)((trans-4-(6-(dimethylamino)pyridin-3-yl)cyclohexyl)methyl)carbamoyl)cyclohexyl 3-hydroxyazetidine-1-carboxylate], the EC50 was ≤ 250 nM. `COc1ccc([C@H]2CC[C@H](CN(c3cccc(-c4cnn(C5CC5)c4)c3)C(=O)[C@H]3CC[C@H](OC(=O)NCCCO)CC3)CC2)cc1C` [Compound 4.10, trans-4-((3-(1-Cyclopropyl-1H-pyrazol-4-yl)phenyl)((trans-4-(4-methoxy-3-methylphenyl)cyclohexyl)methyl)carbamoyl)cyclohexyl (3-hydroxypropyl)carbamate] was tested, and the EC50 was ≤ 250 nM. For `CCNC(=O)O[C@H]1CC[C@H](C(=O)N(C[C@H]2CC[C@H](c3ccc(OC)c(C)c3)CC2)c2cccc(-c3cnn(C4CC4)c3)c2)CC1` [Compound 3.01, trans-4-((3-(1-Cyclopropyl-1H-pyrazol-4-yl)phenyl)((trans-4-(4-methoxy-3-methylphenyl)cyclohexyl)methyl)carbamoyl)cyclohexyl ethylcarbamate], the EC50 was ≤ 250 nM. `COc1ccc([C@H]2CC[C@H](CN(c3cccc(-c4cnc(C5CC5)s4)c3)C(=O)[C@H]3CC[C@H](NC(=O)C4CNC4)CC3)CC2)cc1C` [Compound 27.06, N-(trans-4-((3-(2-Cyclopropylthiazol-5-yl)phenyl)((trans-4-(4-methoxy-3-methylphenyl)cyclohexyl)methyl)carbamoyl)cyclohexyl)azetidine-3-carboxamide] was tested, and the EC50 was ≥ 1000 nM. In the case of `COc1ccc([C@H]2CC[C@H](CN(c3cc(-c4coc(C5CC5)n4)ccn3)C(=O)[C@H]3CC[C@H](OC(=O)N4CC(OCCO)C4)CC3)CC2)nc1C` [Compound 6.76, trans-4-((4-(2-Cyclopropyloxazol-4-yl)pyridine-2-yl)((trans-4-(5-methoxy-6-methylpyridin-2-yl)cyclohexyl)methyl)carbamoyl)cyclohexyl 3-(2-hydroxyethoxy)azetidine-1-carboxylate], the EC50 is reported as ≤ 250 nM. `CNC(=O)O[C@H]1CC[C@H](C(=O)N(CC23CCC(c4ccc(N(C)C)nc4)(CC2)CC3)c2cccc(-c3coc(C4CC4)n3)c2)CC1` [Compound 3, 4-((3-(2-Cyclopropyloxazol-4-yl)phenyl)((4-(6-(dimethylamino)pyridin-3-yl)bicyclo[2.2.2]octan-1-yl)methyl)carbamoyl)cyclohexyl trans-methylcarbamate] was tested, and the EC50 was ≤ 250 nM. With `COc1ccc([C@H]2CC[C@H](CN(c3cccc(-c4cnn(C5CC5)c4)c3)C(=O)[C@H]3CC[C@H](OC(=O)NCCCN(C)C)CC3)CC2)cc1C` [Compound 4.11, trans-4-((3-(1-Cyclopropyl-1H-pyrazol-4-yl)phenyl)((trans-4-(4-methoxy-3-methylphenyl)cyclohexyl)methyl)carbamoyl)cyclohexyl (3-(dimethylamino)propyl)carbamate] the EC50 was ≤ 250 nM. `COc1ccc([C@H]2CC[C@H](CN(c3cc(-c4coc(C5CC5)n4)ccn3)C(=O)[C@H]3CC[C@H](OC(=O)N4CC(C5COC5)C4)CC3)CC2)nc1C` [Compound 6.84, trans-4-((4-(2-Cyclopropyloxazol-4-yl)pyridin-2-yl)((trans-4-(5-methoxy-6-methylpyridin-2-yl)cyclohexyl)methyl)carbamoyl)cyclohexyl 3-(oxetan-3-yl) azetidine-1-carboxylate] was tested, and the EC50 was ≤ 250 nM. For `COc1ccc([C@H]2CC[C@H](CN(c3cccc(-c4coc(C5CC5)n4)c3)C(=O)[C@H]3CC[C@H](CC(=O)O)CC3)CC2)cc1C` [Compound 21.02, 2-(trans-4-((3-(2-Cyclopropyloxazol-4-yl)phenyl)((trans-4-(4-methoxy-3-methylphenyl)cyclohexyl)methyl)carbamoyl)cyclohexyl)acetic acid], the EC50 was ≤ 250 nM. In the case of `COC(=O)O[C@H]1CC[C@H](C(=O)N(C[C@H]2CC[C@H](c3ccc(OC)c(C)c3)CC2)c2cccc(-c3cnn(C4CC4)c3)c2)CC1` [Compound 1.07, trans-4-((3-(1-Cyclopropyl-1H-pyrazol-4-yl)phenyl)((trans-4-(4-methoxy-3-methylphenyl)cyclohexyl)methyl)carbamoyl)cyclohexyl methyl carbonate], the EC50 is reported as ≤ 250 nM. For `COc1ccc([C@H]2CC[C@H](CN(c3cccc(-c4cnn(C(C)C)c4)c3)C(=O)[C@H]3CC[C@H](OC(=O)N4CCOCC4)CC3)CC2)nc1C` [Compound 6.43, trans-4-((3-(1-Isopropyl-1H-pyrazol-4-yl)phenyl)((trans-4-(5-methoxy-6-methylpyridin-2-yl)cyclohexyl)methyl)carbamoyl)cyclohexylmorpholine-4-carboxylate], the EC50 was ≤ 250 nM. In the case of `CNC(=O)O[C@H]1CC[C@H](C(=O)N(C[C@H]2CC[C@H](c3ccc(OC)c(C)c3)CC2)c2cc(-c3cnc(C(C)C)s3)ccn2)CC1` [Compound 5.02, trans-4-((4-(2-Isopropylthiazol-5-yl)pyridin-2-yl)((trans-4-(4-methoxy-3-methylphenyl)cyclohexyl)methyl)carbamoyl)cyclohexyl methylcarbamate], the EC50 is reported as ≤ 250 nM. With `COc1ccc([C@H]2CC[C@H](CN(c3cc(-c4coc(C(C)C)n4)ccn3)C(=O)[C@H]3CC[C@H](OC(=O)N4CC(CO)C4)CC3)CC2)nc1C` [Compound 7.97, trans-4-((4-(2-Isopropyloxazol-4-yl)pyridine-2-yl)((trans-4-(5-methoxy-6-methylpyridin-2-yl)cyclohexyl)methyl)carbamoyl)cyclohexyl 3-(hydroxymethyl)azetidine-1-carboxylate] the EC50 was ≤ 250 nM. `CNC(=O)O[C@H]1CC[C@H](C(=O)N(C[C@H]2CC[C@H](c3ccc4c(c3)c(F)nn4C)CC2)c2cccc(-c3cnn(C4CC4)c3)c2)CC1` [Compound 1.09, trans-4-((3-(1-Cyclopropyl-1H-pyrazol-4-yl)phenyl)((trans-4-(3-fluoro-1-methyl-1H-indazol-5-yl)cyclohexyl)methyl)carbamoyl)cyclohexyl methylcarbamate] was tested, and the EC50 was ≤ 250 nM. With `COc1ccc([C@H]2CC[C@H](CN(c3cc(-c4cnn(C(C)C)c4)ccn3)C(=O)[C@H]3CC[C@H](OC(=O)N4CC(OC(C)C)C4)CC3)CC2)cc1C#N` [Compound 7.49, trans-4-(((trans-4-(3-Cyano-4-methoxyphenyl)cyclohexyl)methyl)(4-(1-isopropyl-1H-pyrazol-4-yl)pyridin-2-yl)carbamoyl)cyclohexyl 3-isopropoxyazetidine-1-carboxylate] the EC50 was ≤ 250 nM.
